Measurements taken from patent publication US9340577B2, “HLA binding motifs and peptides and their uses” (priority 1992, dated 2016).
No end group written: not given here.

Tests used:
Test in all cases: biochemical
Format in all cases: binding
HLA-A*0201 (HLA-A2.1) = HLA-A*0201 (HLA-A2.1) (Homo sapiens, UniProt P04439, D140Y/D185E/D98H/E176V/E277Q/G131W/G231S/I119V/I121R/I166T/I218V/L300P/L318F/N151K/N90K/P208A/P217A/Q86G/Q94H/R138H/R169H/T345S)
A*0202 = A*0202 (Homo sapiens, UniProt P04439, D140Y/D185E/D98H/E176V/E277Q/G131W/G231S/I119L/I121R/I166T/I218V/L180W/L300P/L318F/N151K/N90K/P208A/P217A/Q67R/Q86G/Q94H/R138H/R169H/T345S)
A*0203 = A*0203 (Homo sapiens, UniProt P04439, A173T/D140Y/D185E/D98H/E277Q/G131W/G231S/I119V/I121R/I166T/I218V/L180W/L300P/L318F/N151K/N90K/P208A/P217A/Q86G/Q94H/R138H/R169H/T345S)
A*0206 = A*0206 (Homo sapiens, UniProt P04439, D140Y/D185E/D98H/E176V/E277Q/F33Y/G131W/G231S/I119V/I121R/I166T/I218V/L300P/L318F/N151K/N90K/P208A/P217A/Q86G/Q94H/R138H/R169H/T345S)
A*6802 = A*6802 (Homo sapiens, UniProt P04439, A269V/D140Y/D185E/E176V/E277Q/E87N/F33Y/G231S/I121R/I166T/I218V/L180W/L300P/L318F/N151K/P208A/P217A/Q86R/R138H/R169H/S129P/T345S/V36M)

Row | Compound | IC50 (HLA-A*0201 (HLA-A2.1)) [nM] | IC50 (A*0202) [nM] | IC50 (A*0203) [nM] | IC50 (A*0206) [nM] | IC50 (A*6802) [nM]
1 | LLIESTPFNV [Peptide 9013.0128] | 16 | 4 | 8.1 | 62 | 
2 | CSCC[C@H](NC(=O)[C@H](C)N)C(=O)N[C@@H](CS)C(=O)N[C@@H](CCCNC(=N)N)C(=O)N[C@@H](Cc1c[nH]c2ccccc12)C(=O)NCC(=O)N[C@@H](CC(C)C)C(=O)N[C@@H](CC(C)C)C(=O)N[C@H](C(=O)O)C(C)C [Peptide 1334.07] | 51 | 9280 | 1570 | 2110 | 3900
3 | LLFWNPPTTA [Peptide 9013.0123] | 25 | 1.3 | 1.6 | 1170 | 2140
4 | NLTVNNSGSYT [Peptide 9013.0303] | > 20000 | > 20000 | > 20000 | > 20000 | 
5 | YVSGANLNL [Peptide 9013.0100] | 6160 | 13 | 75 | 230 | 374
6 | TLYAHIQCL [Peptide 1578.26] | 269 | 4.9 | 9.4 | 420 | 
7 | LLTFWNPPTV [Peptide 9013.0120] | 170 | 10 | 3.2 | 1000 | 607
8 | LTNTGLYNL [Peptide 1481.17] |  | 20 | 4990 | 1830 | 1580
9 | LLLTASLLV [Peptide 9013.0002] | 28 | 1330 | 293 | 79 | > 20000
10 | ILQHTQELFI [Peptide 9013.0212] |  | 49 | 594 | > 20000 | > 20000
11 | GLLVGVALI [Peptide 9013.0111] | 158 | 89 | 13 | 206 | 
12 | AIFGVNPTV [Peptide 1578.25] | 205 | 21 | 92 | 96 | 
13 | FQQSTQELFV [Peptide 9013.0178] |  | 21 | 46 | 60 | > 20000
14 | TLDATYLWWV [Peptide 9013.0158] | 61 | 137 | 468 | 155 | 
15 | ELLLLVHNL [Peptide 9013.0022] |  | 1880 | > 20000 | 7180 | 
16 | GMGCTGWFEV [Peptide 1578.19] |  | 37 | 62 | 1460 | 1320
17 | NVAEGKEVLV [Peptide 9013.0133] | > 20000 | 1140 | 19600 | > 20000 | 
18 | CC(C)[C@H](NC(=O)[C@@H](NC(=O)[C@H](CC(N)=O)NC(=O)[C@H](CCC(N)=O)NC(=O)[C@H](C)NC(=O)[C@H](CCC(=O)O)NC(=O)[C@@H]1CCCN1C(=O)[C@H](CCC(=O)O)NC(=O)[C@H](CS)NC(=O)[C@@H](NC(=O)[C@@H](N)Cc1ccccc1)[C@@H](C)O)[C@@H](C)O)C(=O)O [Peptide 9013.0323] | 336 | 29 | 86 | 920 | 
19 | ILNTTYLWWV [Peptide 9013.0195] |  | 121 | 22 | 775 | 15900

Row | Compound | IC50 (HLA-A*0201 (HLA-A2.1)) [nM] | IC50 (A*0202) [nM] | IC50 (A*0203) [nM] | IC50 (A*0206) [nM] | IC50 (A*6802) [nM]
20 | WQRLLLTASLV [Peptide 9013.0253] |  | 246 | 19 | 496 | > 20000
21 | NLAEGKEVLL [Peptide 9013.0134] |  | 9.2 | 2030 | 16900 | > 20000
22 | TVESTPFNV [Peptide 9013.0013] | 17200 | 1910 | 6160 | 2390 | 
23 | RLTVKTITVSA [Peptide 9013.0319] |  | 401 | 91 | 1360 | 270
24 | QLHTQVLFI [Peptide 9013.0103] |  | 22 | 39 | 5520 | > 20000
25 | ALYSWLIDGNI [Peptide 9013.0315] | 25 | 3.6 | 7 | 92 | 
26 | LTFWNPPTV [Peptide 9013.0006] | 3.4 | 17 | 2.3 | 5.2 | 
27 | VQWAFDNEV [Peptide 86.0209] |  | 1500 | 4520 | 31 | > 20000
28 | FLQGCIISYA [Peptide 1578.18] | 93 | 2.6 | 9 | 241 | 
29 | GVLVGVALV [Peptide 9013.0110] | 946 | 6090 | 472 | 56 | 
30 | RTLQQLLFA [Peptide 1525.18] | 948 |  | 394 | 18 | > 20000
31 | TLVTTITVYA [Peptide 9013.0193] | 781 | 11 | 57 | 1740 | 
32 | VLAEAMSAA [Peptide 1516.11] | 24 |  | 0.87 | 10 | 474
33 | WLRLLLTASL [Peptide 9013.0116] | 8820 |  | 32 | 17400 | 19800
34 | SLLTFWNPPTV [Peptide 9013.0256] |  | 54 | 54 | 536 | 2270
35 | WLNNQSLPV [Peptide 9013.0070] |  | 1.3 | 4.3 | 978 | 197
36 | ITIGVLVGV [Peptide 9013.0109] |  | 43 | 16 | 55 | 9
37 | RQIIGYVIGV [Peptide 9013.0139] |  | 7.4 | 20 | 47 | 27
38 | GTFQQSTQEV [Peptide 9013.0175] | > 20000 | 157 | 431 | 2050 | 

Row | Compound | IC50 (HLA-A*0201 (HLA-A2.1)) [nM] | IC50 (A*0202) [nM] | IC50 (A*0203) [nM] | IC50 (A*0206) [nM] | IC50 (A*6802) [nM]
39 | FLGALKSFL [Peptide 1578.11] | 719 | 0.3 | 2.1 | 1720 | 
40 | GLSLPVSPRL [Peptide 9013.0220] |  | 223 | 3870 | > 20000 | > 20000
41 | SLMKFLQGSV [Peptide 1578.04] | 436 | 31 | 4.6 | 1450 | 
42 | ITVNNSGSYV [Peptide 9013.0187] | > 20000 | 334 | 255 | 1010 | 
43 | TLGIMIGVLV [Peptide 9013.0251] |  | 87 | 197 | 2240 | 1780
44 | ILYAHIQCL [Peptide 1578.08] |  | 9.4 | 10 | 420 | 16400
45 | VLGEAMSQA [Peptide 1539.08] |  | 21 | 22 | 1090 | > 20000
46 | QLSNGNRTLTV [Peptide 9013.0334] |  | 20 | 363 | > 20000 | > 20000
47 | AQYSWLIDGNV [Peptide 9013.0314] |  | 62 | 48 | 70 | 15600
48 | RVYVCGIQNSV [Peptide 9013.0336] |  | 0.22 | 3.6 | 305 | 6320
49 | WQRLLLTASV [Peptide 9013.0115] | 5110 |  | 36 | 2230 | > 20000
50 | YTYYRPGVNV [Peptide 9013.0208] |  | 5.6 | 2.9 | 75 | 7
51 | LLLVHNLPQHV [Peptide 9013.0275] | 4820 |  | 652 | 5140 | > 20000
52 | TLVLFIAKI [Peptide 9013.0106] | 16600 |  | 21 | 29 | 13000
53 | YLIGTQQAT [Peptide 9013.0025] |  | 2.6 | 18 | 5520 | 8240
54 | SLQELFIPNI [Peptide 9013.0182] |  | 15 | 35 | 66 | 7460
55 | AQYSWFVNGV [Peptide 9013.0172] |  | 1.2 | 2.4 | 13 | 12000
56 | LQGAIISFV [Peptide 1578.28] | 42 | 6.6 | 11 | 20 | 
57 | RILQQLLFT [Peptide 1525.13] |  | 5690 | 5250 | 491 | > 20000
